For three compounds, Ki results are on record in BindingDB's records for doi:10.1021/jm00145a017 (1985).

Each structure is given as a SMILES string.

What is called Ki is the equilibrium dissociation constant of an inhibitor or competing ligand from its target.

The experiment can be described thus: Intrinsic affinity towards serotonin receptor from rat frontal cortex by displacement of [3H]spiperone.
For the compound `Clc1cncc(N2CCNCC2)n1` [L-630,571], the Ki is 6000 nM.

In turn, `FC(F)(F)c1ccc2c(c1)N1CCNCC1CC2` (stereo not drawn) [9-Trifluoromethyl-2,3,4,4a,5,6-hexahydro-1H-pyrazino[1,2-a]quinoline] showed a Ki of 136 nM. This Ki lies about 44-fold lower than the previous one.

For the compound `FC(F)(F)c1cccc(N2CCNCC2)c1` [TFMPP], the affinity corresponds to a Ki of 298 nM.
